Measurements reported in patent US20230181554A1, “AGENT FOR PROTECTING AND/OR REGENERATING NEUROMUSCULAR JUNCTION” (ONO PHARMACEUTICAL CO., LTD., priority 2020, published 2023).

Key:
[1] = system: co-culture of mouse myoblast cell line C2C12 cells into which human mutant SOD1 (G93A) was introduced and mouse primary cultured motor neurons; assay: Neuromuscular junction formation in co-culture, α-bungarotoxin-positive area; type: cell-based; details: for concentration from which the positive area of the neuromuscular junction was significantly increased: α-bungarotoxin-positive area on day 11 after treatment, versus control (Dunnett's test); for positive area of the neuromuscular junction: day 11
[2] = system: mouse primary cultured motor neurons; assay: Neurite outgrowth action in mono-culture of motor neurons; type: cell-based; details: total protrusion length on day 4 after treatment, versus control (Dunnett's test)
Experimental: In a mono-culture system of mouse primary cultured motor neurons, the neurite outgrowth action of a sterol C14-reductase inhibitor (TM7SF2 inhibitor) and FF-MAS was evaluated. The mouse primary cultured motor neurons were prepared from an embryonic day 13 mouse fetus. In other words, a mouse on day 13 of gestation was subjected to cervical dislocation and euthanized, and the abdomen was incised to extract the fetus. The fetus was decapitated, and then the spinal cord was extracted under a stereomicroscope. The spinal cord was treated with HBSS containing 0.25% trypsin at 37° C. for 15 minutes, then the supernatant was removed, washing was performed 3 times with HBSS, 2 mL of a dispersion solution was added, and pipetting was repeated with a tapered Pasteur pipette to prepare a cell suspension. The cell suspension was centrifuged (200 g, 5 minutes), 2 mL of a motor neuron medium was added to the sediment, the suspension was resuspended, and the number of cells was measured. The mouse primary cultured motor neurons suspended in the motor neuron medium were seeded on a 96-well imaging plate coated with poly-D-lysine at 1.5×10^4 cells/100 μL/well. […] The neurite length was evaluated by immunostaining the nuclei and protrusions of nerve cells. […] As primary antibodies, Anti-Neuron-specific beta-III Tubulin Antibody (R&D Systems, Inc., MAB1195, 1/1,000 dilution) and Anti-NeuN Antibody (Merck Millipore, ABN78, 1/500 dilution) diluted with a blocking solution were added in an amount of 50 and the plate was allowed to stand at 4° C. overnight. After washing 3 times with 100 to 150 μL/well of PBS, 50 μL/well of Alexa Fluor 647 goat anti-mouse IgG (H+L) (Invitrogen, A-21236, 1/1,000 dilution) and Alexa Fluor 488 goat anti-rabbit IgG (H+L) (Invitrogen, A-11034, 1/1,000 dilution) as secondary antibodies were added, and the plate was allowed to stand at room temperature for 1 hour while being shielded from light, and then washed 3 times with 100 to 150 μL/well of PBS. The stained plate was photographed using the Opera Phenix high-throughput high-content imaging system ([…] Japan). Images of 5 fields per well were acquired using an Alexa Fluor 647 wavelength filter for photographing neurites and an Alexa Fluor 488 wavelength filter for photographing nuclei of nerve cells, nuclei of nerve cells and neurites per field were analyzed by an analysis program, and the sum of neurite lengths per field was calculated. Taking the mean of the sum of neurite lengths in the vehicle group (0.03% DMSO or 0.2% ethanol) evaluated for each plate as 100%, the sum of neurite lengths in the sterol C14-reductase inhibitor (TM7SF2 inhibitor) and FF-MAS treatment groups was calculated.

[3] = system: rat primary Schwann cells; assay: Schwann cell differentiation-promoting action (MAG expression); type: cell-based; details: day 3 after treatment, versus control (Dunnett's test)
Experimental: The Schwann cell differentiation-promoting action of FF-MAS was evaluated in a culture system of rat primary Schwann cells. In other words, neonatal rats aged 0 to 2 days after birth were decapitated, then sterilized by being immersed in ethanol for disinfection, moved to a clean bench, and then washed with a recovery medium (Dulbecco's modified Eagle medium (Sigma Aldrich, product number D5921) without phenol red containing 1 vol % Antibiotic-Antimycotic (Antibiotic-Antimycotic 100×, Thermo Fisher Scientific, Inc., product number 15240062)). Thereafter, the dorsal root ganglion was extracted under a microscope and recovered in a 15 mL tube filled with the recovery medium. The recovered tube was centrifuged at 400 g for 3 minutes at room temperature, and the supernatant was removed. […] The number of cells in the filtered cell suspension was counted and adjusted to 2.0×10^5 cells/mL, and then the cells were seeded on a 96-well plate coated with poly-D-lysine at 100 μL/well each, and statically cultured in a CO2 incubator under conditions of 5% CO2, 95% air, and 37° C. […] The Schwann cell differentiation-promoting action was evaluated on the basis of the expression level of myelin-associated glycoprotein (hereinafter referred to as MAG). […]

[4] = system: mouse myoblast cell line C2C12 cells into which human mutant SOD1 (G93A) was introduced; assay: FF-MAS and 14-dehydrozymosterol accumulation action in myotube-like differentiated C2C12 cells (LC/APCI-MS/MS); type: cell-based; details: for intracellular FF-MAS concentration: cells recovered at 3 and 24 hours after treatment, DMSO treatment group below the detection limit; for concentration of 14-dehydrozymosterol: same treatment as for FF-MAS, cells recovered at 3 and 24 hours
Experimental: After mouse myoblast cell line C2C12 cells into which human mutant SOD1 (G93A) was introduced were myotube-like differentiated, the cells were treated with sterol C14-reductase inhibitors (TM7SF2 inhibitors) (amorolfine, ziprasidone, and ifenprodil), and the fluctuation of sterol in the cells was evaluated. In other words, in order to differentiate C2C12 cells into myotubes, C2C12 cells that had been cultured using 15% FBS-DMEM (Dulbecco's modified Eagle's medium containing 15% fetal bovine serum and 100 units/mL penicillin-100 μg/mL streptomycin) were cultured for 2 days in a culture flask after the medium was replaced with a low-serum medium (Dulbecco's modified Eagle's medium containing 0.5% FBS, 1% insulin-transferrin-selenium, and 100 units/mL penicillin-100 μg/mL streptomycin). Then, in order to remove proliferating undifferentiated cells, the medium was replaced with a low-serum medium containing 10 μmol/L arabinocytidine (AraC), and the cells were further cultured for 2 days. The myotube-like differentiated C2C12 cells were detached from the culture flask by treatment with 0.25% trypsin-1 mmol/L EDTA, and then the cells were seeded on a 3.5-cm culture dish coated with Matrigel at 2.4×10^5 cells/dish, and cultured for 3 days. After treatment with a sterol C14-reductase inhibitor (TM7SF2 inhibitor) or 0.03% DMSO, the cells were recovered at 3 and 24 hours. After removing the medium and washing with phosphate buffered saline (PBS), the cells were recovered with 200 µL of 90% methanol containing 1 μmol/L d7-cholesterol (internal standard substance), and further recovered again with 200 μL of a 90% methanol solution, so that a total of about 400 μL of a cell recovery solution was obtained. Then, 160 μL of this cell recovery solution was pretreated by a solid-phase extraction method using OASIS PRiME HLB glution Plate, and a sample eluted with methanol/IPA (1 : 1) was measured by high-performance liquid chromatography/atmospheric pressure chemical ionization-tandem mass spectrometry (LC/APCI-MS/MS), and each concentration in the recovery solution was calculated by an internal standard calibration curve method.

[5] = system: C2C12 cells in which human mutant SOD1 (G93A) was overexpressed alone and mouse primary motor neurons; assay: Neuromuscular junction formation in co-culture, C2C12 overexpressing human mutant SOD1 (G93A) alone; type: cell-based; details: day 11
[6] = system: C2C12 cells in which both human mutant SOD1 (G93A) and a human TM7SF2 gene were overexpressed and mouse primary motor neurons; assay: Neuromuscular junction formation in co-culture, C2C12 overexpressing human mutant SOD1 (G93A) and human TM7SF2; type: cell-based; details: same concentration range (0.1, 0.3, 1, and 3 μmol/L), day 11
[7] = system: myasthenia gravis model rat; assay: Rat myasthenia gravis model (mAb35 induced), grip strength; type: in vivo; details: grip strength at 96 hours after induction by mAb35; repeated oral administration once a day; versus control (Dunnett's test)
Experimental: The efficacy of ifenprodil, which is a sterol C14-reductase inhibitor (TM7SF2 inhibitor), in a rat myasthenia gravis model was evaluated. The rat myasthenia gravis model is a model in which a neuromuscular junction (NMJ) is impaired and motor functions such as grip strength are declined by treating a rat with mAb35, which is an antibody against an anti-acetylcholine receptor. First, an anti-acetylcholine receptor antibody mAb35 (Bio X Cell, product number BE0123) as an inducing agent was intraperitoneally administered to a 5-week-old female LEW/CrlCrlj rat at a concentration of 0.29 mg/mL and a volume of 5 mL/kg to induce a pathological condition. Ifenprodil (MedChemExpress, product number HY-12882A) as a test substance was dissolved in water for injection (Otsuka Pharmaceutical Factory, Inc.) containing 2% DMSO so that the concentration is 0.1, 0.3, and 1 mg/mL to prepare an administration solution. Ifenprodil was repeatedly orally administered once a day at doses of […] from 9 hours after induction by administration of mAb35 to 4 days after induction as the evaluation end date. […] The grip strength was measured on the day before induction (pre-value). […] For quantitative evaluation of the grip strength, a grip strength measuring device Traction Meter (BrainScience idea Co., Ltd.) was used.

CC(C)=CCC[C@@H](C)[C@H]1CC=C2C3=C(CC[C@@]21C)[C@@]1(C)CC[C@H](O)C(C)(C)[C@@H]1CC3 [FF-MAS, 4,4-dimethyl-5alpha-cholesta-8,14,24-trien-3beta-ol]
concentration from which the positive area of the neuromuscular junction was significantly increased [1]: 10 µmol/L | concentration from which the sum of neurite lengths was significantly increased [2]: 1.1 µmol/L | concentration from which the value of MAG/number of cell nuclei was significantly increased [3]: 3 µmol/L

CCC(C)(C)c1ccc(CC(C)CN2C[C@@H](C)O[C@@H](C)C2)cc1 (stereo partly shown) [amorolfine]
intracellular FF-MAS concentration [4]: increase | concentration of 14-dehydrozymosterol [4]: increase | concentration from which the positive area of the neuromuscular junction was significantly increased [1]: 0.3 µmol/L | concentration from which the sum of neurite lengths was significantly increased [2]: 0.3 µmol/L | positive area of the neuromuscular junction ([5]; at 1 μmol/L): significantly increased | positive area of the neuromuscular junction ([5]; at 3 mol/L): significantly increased | positive area of the neuromuscular junction [6]: no increasing fluctuation

CC(C(O)c1ccc(O)cc1)N1CCC(Cc2ccccc2)CC1 (stereo not shown) [ifenprodil]
intracellular FF-MAS concentration [4]: increase | concentration of 14-dehydrozymosterol [4]: increase | concentration from which the positive area of the neuromuscular junction was significantly increased [1]: 1 µmol/L | concentration from which the sum of neurite lengths was significantly increased [2]: 1 µmol/L | dose from which the grip strength was significantly improved [7]: 3 mg/kg

O=C1Cc2cc(CCN3CCN(c4nsc5ccccc45)CC3)c(Cl)cc2N1 [ziprasidone]
intracellular FF-MAS concentration [4]: increase | concentration of 14-dehydrozymosterol [4]: increase | concentration from which the positive area of the neuromuscular junction was significantly increased [1]: 3 µmol/L | concentration from which the sum of neurite lengths was significantly increased [2]: 1 µmol/L

COc1ccc(S(=O)(=O)N2CCC(N3CCC(C)CC3)CC2)cc1 [TASIN-1]
positive area of the neuromuscular junction [1]: no significant increase

CC(C)=CCC[C@@H](C)[C@H]1CC=C2C3=C(CC[C@@]21C)[C@@]1(C)CC[C@H](O)C[C@@H]1CC3 [14-dehydrozymosterol, 5alpha-cholesta-8,14,24-trien-3beta-ol]
concentration from which the positive area of the neuromuscular junction was significantly increased [1]: 10 µmol/L

CC(C)=CCC[C@@H](C)[C@H]1CC[C@H]2C3=C(CC[C@]12C)[C@@]1(C)CC[C@H](O)C[C@@H]1CC3 [zymosterol]
positive area of the neuromuscular junction ([1]; added at 0.05 to 10 μmol/L): no significant increase
